The text below walks through data of US10683297B2 (Sunshine Lake Pharma Co., Ltd., priority 2017, dated 2020).

Data set [1] in a line: Pharmacokinetics after intravenous and oral administration in rats. It counts as in vivo. Conditions: for Clearance (CL) after iv dosing / AUC(0-t) / half-life / Vd: dose 1 mg/kg (Ex. 9: 0.6, Ex. 18: 0.5, Ex. 50: 0.96 mg/kg), iv dosing; for AUC(0-t) / half-life / Vd / bioavailability: rat, plasma; for Vd: read-out: Vss; for bioavailability: oral (generally 5 or 10 mg/kg) versus iv dosing, read-out: F (oral bioavailability). Here is the method:
(§1) The LC/MS/MS system used in the analysis consists of an Agilent 1200 Series vacuum degasser, binary pump, well-plate autosampler, thermostatted column compartment, the Agilent G6430 Triple Quadrupole Mass Spectrometer with an electrosprayionization (ESI) source. Quantitative analysis was carried out using MRM mode. The parameters for MRM transitions are in the Table A.
(§2) An Agilent XDB-C18, 2.1×30 mm, 3.5 μM column was used for the analysis. 5 μL of the samples were injected. Analysis condition: The mobile phase was 0.1% formic acid in water (A) and 0.1% formic acid in methanol (B). The flow rate was 0.4 mL/min. And the gradient of Mobile phase was in the Table B.
(§3) Alternatively, an Agilent 6330 series LC/MS/MS spectrometer equipped with G1312A binary pumps, a G1367A autosampler and a G1314C UV detector were used in the analysis. An ESI source was used on the LC/MS/MS spectrometer. The analysis was done in positive ion mode as appropriate and the MRM transition for each analyte was optimized using standard solution. A Capcell MP-C18 100×4.6 mm I.D., 5 uM column (Phenomenex, Torrance, Calif., USA) was used during the analysis. The mobile phase was 5 mM ammonia acetate, 0.1% MeOH in water (A): 5 mM ammonia acetate, 0.1% MeOH in acetonitrile (B) (70/30, v/v). The flow rate was 0.6 mL/min. Column was maintained at ambient temperature. 20 μL of the samples were injected.
The compounds disclosed herein are assessed in pharmacokinetic studies in mice, rats, dogs or monkeys. The compounds are administered as a water solution, 2% HPMC+1% TWEEN®80 in water solution, 5% DMSO+5% solutol in saline, 4% MC suspension or capsule. For the intravenous administration, the animals are generally given at about 0.5, 0.6, 1 or 2 mg/kg dose. For the oral (p.o.) dosing, mice and rats are generally given 5 or 10 mg/kg dose, and dogs and monkeys are generally given 10 mg/kg dose. The blood samples (0.3 mL) are drawn at 0.25, 0.5, 1.0, 2.0, 3.0, 4.0, 6.0, 8.0, 12 and 24 h time points or 0.083, 0.25, 0.5, 1.0, 2.0, 4.0, 6.0, 8.0 and 24 h time points and centrifuged at 3,000 or 4000 rpm for 2 to 10 min. The plasma solutions are collected, and stored at […] until analyzed by LC/MS/MS as described above.

The nature of data set [2]: Compound stability in human liver microsomes. It counts as in vitro ADME. To be noted: for half-life at 5 μM: human liver microsomes 0.5 mg protein/mL, compound 5 μM, NADPH 1.0 mM, pH 7.4, 37° C., read-out: Human T1/2; for CLint scaled at 5 μM: liver microsomes, pH 7.4, in vivo CLint extrapolated from human liver microsome incubation. The protocol:
as §1, §2, §3
(§4) Human or rat liver microsomes incubations were conducted in duplicate in polypropylene tubes. The typical incubation mixtures consisted of human or rat liver microsomes (0.5 mg protein/mL), compounds of interest (5 μM) and NADPH (1.0 mM) in a total volume of 200 μL potassium phosphate buffer (PBS, 100 mM, pH 7.4). Compounds were dissolved in DMSO and diluted with PBS such that the final concentration of DMSO was 0.05%. The enzymatic reactions were commenced with the addition of […] after a 3-min preincubation and incubated in a water bath open to the air at 37° C. Reactions were terminated at various time points (0, 5, 10, 15, 30, 60 min) by adding equal volume of ice-cold acetonitrile. The samples were stored at […] until LC/MS/MS assays.
(§5) The concentrations of compounds in the incubation mixtures of human or rat liver microsomes were determined by a LC/MS/MS method. The ranges of the linearity in the concentration range were determined for each tested compounds.
(§6) A parallel incubation was performed using denatured microsomes as the negative control, and reactions were terminated at various time points (0, 15, 60 min) after incubation at 37° C.
(§7) Dextromethorphan (70 μM) was selected as the positive control, and reactions were terminated at various time points (0, 5, 10, 15, 30, 60 min) after incubation at 37° C. Both positive and negative control samples were included in each assay to ensure the integrity of the microsomal incubation system.
(§8) The concentrations of compounds in human or rat liver microsome incubations were plotted as a percentage of the relevant zero time point control for each reaction. The in vivo CLint were extrapolated (ref.: Naritomi, Y.; Terashita, S.; Kimura, S.; Suzuki, A.; Kagayama, A.; and Sugiyama, Y.; Prediction of human hepatic clearance from in vivo animal experiments and in vitro metabolic studies with liver microsomes from animals and humans. Drug Metab. Dispos., 2001, 29: 1316-1324).

Data set [3] is described as follows: Compound stability in rat liver microsomes. Type of data set: in vitro ADME. Conditions: for CLint scaled at 5 μM: liver microsomes, pH 7.4, in vivo CLint extrapolated from rat liver microsome incubation; for half-life at 5 μM: rat liver microsomes 0.5 mg protein/mL, compound 5 μM, NADPH 1.0 mM, pH 7.4, 37° C., read-out: Rat T1/2. The protocol: as §1, §2, §3, §4, §5, §6, §7, §8

SMILES strings stand for the structures.

`CCC1CN(c2ccc(C#N)cn2)CCC1Nc1nc(Nc2ccn3c(C)nnc3c2)ncc1Cl` (stereo not drawn) [Example 17, 6-(4-((5-chloro-2-((3-methyl-[1,2,4]triazolo[4,3-a]pyridin-7-yl)amino)pyrimidin-4-yl)amino)-3-ethylpiperidin-1-yl)nicotinonitrile]: in data set [1], the “Clearance (CL) after iv dosing” value is 17.8 mL/min/kg; the AUC(0-t) (as a rule, exposure summed from dosing to a finite time, without extrapolation to infinity) was determined as 949 ng·h/mL; the half-life is 36 min; the Vd came to 0.67 L/kg. Moreover, the bioavailability (commonly dose-corrected exposure relative to a reference, in per cent) in data set [1] was found to be 48.2%. Further, in data set [2], the half-life at 5 μM turned out to be 44 min and the CLint scaled (in general, a measure of how fast metabolising enzymes remove a compound, apart from limits set by blood flow) at 5 μM was 39.5 mL/min/kg. For the same compound, in data set [3], the CLint scaled at 5 μM is 302 mL/min/kg and the half-life at 5 μM amounted to 8.22 min.

With `Cc1c(Nc2ncc(Cl)c(NC3CCN(c4ccc(C#N)nn4)CC3)n2)ccn2c(C)cnc12` [Example 29, 6-(4-((5-chloro-2-((3,8-dimethylimidazo[1,2-a]pyridin-7-yl)amino)pyrimidin-4-yl)amino)piperidin-1-yl)pyridazine-3-carbonitrile], in data set [1], the “Clearance (CL) after iv dosing” value was 22.3 mL/min/kg, the AUC(0-t) was 751 ng·h/mL, the half-life was 39.6 min and the Vd turned out to be 1.16 L/kg. The bioavailability in data set [1] came to 38.5%. In data set [2], the half-life at 5 μM stood at 43.9 min and the CLint scaled at 5 μM is 39.6 mL/min/kg. Further, in data set [3], the CLint scaled at 5 μM is 76.8 mL/min/kg and the half-life at 5 μM was 32.4 min.

`Cc1nc2ccc(Nc3ncc(Cl)c(NC4CCN(c5ccc(C#N)nn5)CC4)n3)cn2n1` [Example 34, 6-(4-((5-chloro-2-((2-methyl-[1,2,4]triazolo[1,5-a]pyridin-6-yl)amino)pyrimidin-4-yl)amino)piperidin-1-yl)pyridazine-3-carbonitrile]: in data set [1], the “Clearance (CL) after iv dosing” value turned out to be 10.5 mL/min/kg, the AUC(0-t) was found to be 1560 ng·h/mL, the half-life is 72 min and the Vd stood at 1.53 L/kg. Also, the bioavailability in data set [1] is 46.9%. Moreover, in data set [2], the half-life at 5 μM turned out to be 125 min and the CLint scaled at 5 μM is 13.9 mL/min/kg. Moreover, in data set [3], the CLint scaled at 5 μM was 87.5 mL/min/kg and the half-life at 5 μM amounted to 28.4 min.

On to `Cc1nc2cc(Nc3ncc(Cl)c(NC4CCN(c5ccc(C#N)nn5)CC4)n3)ccn2n1` [Example 35, 6-(4-((5-chloro-2-((2-methyl-[1,2,4]triazolo[1,5-a]pyridin-7-yl)amino)pyrimidin-4-yl)amino)piperidin-1-yl)pyridazine-3-carbonitrile], for which, in data set [1], the “Clearance (CL) after iv dosing” value turned out to be 5.33 mL/min/kg, the AUC(0-t) is 3110 ng·h/mL, the half-life was 156 min and the Vd is 0.53 L/kg. Further, in data set [1], the bioavailability turned out to be 57.6%. In data set [2], the half-life at 5 μM came to 183 min and the CLint scaled at 5 μM was 9.5 mL/min/kg. Also, in data set [3], the CLint scaled at 5 μM is 17.2 mL/min/kg and the half-life at 5 μM came out at 144 min.

With `Cc1nc2cc(Nc3ncc(Cl)c(NC4CCN(c5ccc(C#N)nn5)CC4)n3)ccc2n1C` [Example 49, 6-(4-((5-chloro-2-((1,2-dimethyl-1H-benzo[d]imidazol-5-yl)amino)pyrimidin-4-yl)amino)piperidin-1-yl)pyridazine-3-carbonitrile], in data set [1], the “Clearance (CL) after iv dosing” value is 10.8 mL/min/kg, the AUC(0-t) was determined as 1540 ng·h/mL, the half-life was 36 min and the Vd came out at 0.56 L/kg. Moreover, the bioavailability in data set [1] came out at 79.6%. Further, in data set [2], the half-life at 5 μM is 52.7 min and the CLint scaled at 5 μM is 33 mL/min/kg. In addition, in data set [3], the CLint scaled at 5 μM is 76.5 mL/min/kg and the half-life at 5 μM turned out to be 32.5 min.

For the compound `CC(O)Cn1cnc2cc(Nc3ncc(Cl)c(NC4CCN(c5ccc(C#N)cn5)CC4)n3)cnc21` (stereo not drawn) [Example 52, 6-(4-((5-chloro-2-((3-(2-hydroxypropyl)-3H-imidazo[4,5-b]pyridin-6-yl)amino)pyrimidin-4-yl)amino)piperidin-1-yl)nicotinonitrile], in data set [1], the “Clearance (CL) after iv dosing” value was 15.2 mL/min/kg, the AUC(0-t) was 1090 ng·h/mL, the half-life is 51.6 min and the Vd was determined as 0.96 L/kg. The bioavailability in data set [1] was 34.1%. Further, in data set [2], the half-life at 5 μM was found to be 47.8 min and the CLint scaled at 5 μM was 36.4 mL/min/kg. Also, in data set [3], the CLint scaled at 5 μM is 85.1 mL/min/kg and the half-life at 5 μM is 29.2 min.

Take `CC(O)Cn1ccc2cc(Nc3ncc(Cl)c(NC4CCN(c5ccc(C#N)cn5)CC4)n3)cnc21` (stereo not drawn) [Example 54, 6-(4-((5-chloro-2-((1-(2-hydroxypropyl)-1H-pyrrolo[2,3-b]pyridin-5-yl)amino)pyrimidin-4-yl)amino)piperidin-1-yl)nicotinonitrile]: in data set [1], the “Clearance (CL) after iv dosing” value is 23.8 mL/min/kg, the AUC(0-t) came out at 714 ng·h/mL, the half-life was 47.4 min and the Vd is 0.95 L/kg. In addition, the bioavailability in data set [1] was 36.6%. In data set [2], the half-life at 5 μM stood at 8.52 min and the CLint scaled at 5 μM is 204 mL/min/kg. In addition, in data set [3], the CLint scaled at 5 μM was 634 mL/min/kg and the half-life at 5 μM came out at 3.92 min.

As to `CN(C)C(=O)c1nc2cc(Nc3ncc(Cl)c(NC4CCN(c5ccc(C#N)cn5)CC4)n3)ccn2n1` [Example 83, 7-((5-chloro-4-((1-(5-cyanopyridin-2-yl)piperidin-4-yl)amino)pyrimidin-2-yl)amino)-N,N-dimethyl-[1,2,4]triazolo[1,5-a]pyridine-2-carboxamide], in data set [1], the “Clearance (CL) after iv dosing” value was 9.33 mL/min/kg, the AUC(0-t) came out at 1830 ng·h/mL, the half-life is 84.6 min and the Vd was found to be 0.65 L/kg. Further, the bioavailability in data set [1] worked out at 38.6%. Also, in data set [2], the half-life at 5 μM was found to be 15.1 min and the CLint scaled at 5 μM was 115 mL/min/kg. Also, in data set [3], the CLint scaled at 5 μM is 193 mL/min/kg and the half-life at 5 μM was 12.9 min.

As to `CC(C)(O)c1nc2cc(Nc3ncc(Cl)c(NC4CCN(c5ccc(C#N)nn5)CC4F)n3)ccn2n1` (stereo not drawn) [Example 88, 6-(4-((5-chloro-2-((2-(2-hydroxypropan-2-yl)-[1,2,4]triazolo[1,5-a]pyridin-7-yl)amino)pyrimidin-4-yl)amino)-3-fluoropiperidin-1-yl)pyridazine-3-carbonitrile], in data set [1], the “Clearance (CL) after iv dosing” value is 17.5 mL/min/kg, the AUC(0-t) was 1460 ng·h/mL, the half-life is 32.3 min and the Vd is 0.688 L/kg. Besides, the bioavailability in data set [1] was 4.5%. Also, in data set [2], the half-life at 5 μM was 4720 min and the CLint scaled at 5 μM was 0.4 mL/min/kg. For the same compound, in data set [3], the CLint scaled at 5 μM is 13.2 mL/min/kg and the half-life at 5 μM amounted to 188 min.
